Where two headings read alike, the source gives them in different places.
Legend:
[1] = test system: MDA-MB-468 TNBC cell line; assay: MTT survival assay MDA-MB-468; assay type: cell-based; details: Table S2
Description: (§1) Indicated TNBC cell lines were detached and resuspended at 120,000 cells/ml and added into each well of a transparent 384-well plate in the final volume of 20 µl/well. The cells were maintained in DMEM containing 10% FBS at 37°C, 5% CO2 overnight. Next day, the medium in each well was replaced by 40 μl of the fresh one containing the indicated concentrations of compounds. In case of drug combination experiments, each compound dilution was delivered in corresponding well in 20 μl of medium. […] After incubation for 3–4 days, depending on the cell line, the medium in each well was replaced by 25 μl of 0.5 mg/ml Thiazolyl blue solution in 1xPBS following by incubation for 3 h at 37°C. Then the solution was removed and 25 μl DMSO was added into each well. Absorbance at 510 nm was measured in a Tecan Infinite M200 PRO plate reader.

[2] = test system: MDA-MB-231 TNBC cell line; assay: MTT survival assay MDA-MB-231; assay type: cell-based
Description: as §1

HCC1395 cells = assay: Cytotoxicity by Renilla luciferase under CMV promoter
Description: (§2) The simplicity of the scaffold combined with synthetic accessibility allows building a library of compounds and performing structure activity relationship (SAR) studies of the three main parts of the molecule: the top part, the linker and the core (Figure 2).
(§3) The synthesized compounds were used to explore SAR of three defined areas of investigation (Figure 2). All compounds were tested in the HCC1395 TNBC cell line using the GSK3β inhibitor to induce β-catenin signaling since 4a acted downstream of GSK3β (Figure 2). Both inhibition of β-catenin signaling measured by the TopFlash reporter and cytotoxicity measured by the Renilla reporter were assessed.
(§4) The Wnt3a or CHIR99021-stimulated luciferase activity in HCC1395 TNBC cell line stably transfected with the TopFlash reporter was analyzed essentially as described for the BT-20 TNBC cell line ([Shaw et al., 2019b]; [Koval et al., 2021]). Reporter cells were seeded at 10,000 cells/well in a white opaque 384-well plate in the final volume of 20 μl of DMEM medium supplemented with 10% FCS. The cells were maintained incubated at 37°C, 5% CO2 overnight for attachment. Subsequently, they were transfected by a plasmid encoding constitutively expressed Renilla luciferase under the CMV promoter overall as described in the manufacturer’s protocol using 12 μg/ml of DNA and 40 μl/ml XtremeGENE nine reagent. The next day, the medium in each well was replaced with a 10 μl of fresh medium containing compound of interest, and, after 1 h of preincubation with the compounds, additional 10 μl of medium supplemented with Wnt3a [purified as described ([Willert et al., 2003]; [Koval and Katanaev, 2011])] or CHIR99021 were added creating respective final concentrations of 2.5 μg/ml or 5 μM of each. In case of other signal transduction reporters, no additional stimulation was performed. Compound dilutions were prepared by serial dilution in DMSO and diluted with the amount of medium necessary to obtain their final concentrations indicated on the figures and tables and maintain concentration of DMSO of 0.5% in all assay points. After overnight incubation, the supernatant in each well was removed, and the luciferase activity was measured as described ([Dyer et al., 2000]; [Huber et al., 2021]; [Pellissier et al., 2021]). The culture medium was completely removed from all wells of the plate. Finally, the luciferase activity of the firefly and Renilla luciferases was detected sequentially in individual wells of a 384-well plate through injection of corresponding measurement solutions and immediate reading (400 ms integration time) in Infinite M Plex multifunctional plate reader with injection module.

HCC1806 TNBC cell line = assay: MTT survival assay HCC1806; assay type: cell-based; details: Table S2; for IC50: read-out: MTT HCC1806 IC50
Description: as §1

HCC1395 TNBC cell line = assay: MTT survival assay HCC1395; assay type: cell-based; details: Table S2; for IC50: read-out: MTT HCC-1395 IC50
Description: as §1

[3] = test system: non-cancerous breast epithelial cell line MCF10a; assay: MTT survival assay MCF10a; assay type: cell-based; details: for IC50: read-out: MTT MCF10 IC50
Description: as §1

[4] = test system: β-catenin-dependent Wnt-pathway; assay: TopFlash luciferase reporter assay, CHIR99021-stimulated, HCC1395; assay type: cell-based; details: for Emax: read-out: HCC1395 TopFlash Efficacy
From the text: Both stimulations abolish formation of the destruction complex, a multiprotein complex consisting of Axin, adenomatous polyposis coli (APC), glycogen synthase kinase three beta (GSK3β), and casein kinase one alpha (CK1α). Upon inactivation of the complex, β-catenin accumulates in the cytoplasm and translocates into the nucleus where it interacts with transcription factors. These downstream events are quantified by a Luciferase transcription-based readout assay (TopFlash assay).

BT-20 TNBC cell line = assay: MTT survival assay BT-20; assay type: cell-based; details: Table S2; for IC50: read-out: MTT BT-20 IC50
Description: as §1

in vitro = details: human, HCC1395 Cytotoxicity IC50
Description: as §2, §3, §4

[5] = Homo sapiens, MDA-MB-231, Figure 3B heatmap, read-out: IC50, μM (MDA-MB-231)
[6] = Homo sapiens, MDA-MB-231, Table S2, read-out: MTT MDA-MB-231 IC50
[7] = Homo sapiens, MCF-10A, Table S2
[8] = Homo sapiens, HCC1395, HCC1395, stimulation with CHIR99021 (GSK3β inhibitor)
[9] = Homo sapiens, HCC1395, HCC1395, stimulation with CHIR99021 (GSK3β inhibitor), read-out: HCC1395 TopFlash IC50

Row | Molecule | MTT MDA-MB-231 plateau ([2]; Table S2) | IC50 ([1]; Homo sapiens, MDA-MB-468) | IC50 [2, 5] | IC50 [2, 6] | GSK HCC1395 Renilla Comments (HCC1395 cells) | IC50 (in vitro) | IC50 (HCC1806 TNBC cell line; Homo sapiens, HCC1806) | IC50 (HCC1395 TNBC cell line; Homo sapiens, HCC1395) | IC50 [3, 7] | Emax [4, 8] | IC50 [4, 9] | IC50 (BT-20 TNBC cell line; Homo sapiens, BT-20) | MTT MCF10 Comments ([3]; Table S2) | other results
1 | 2-chloro-N-(2-methoxybenzyl)quinazolin-4-amine [Compound 8a] | 53.88 |  |  |  |  |  |  |  |  |  |  |  |  | IC50 [1]: 3.19 µM; MTT MDA-MB-468 plateau [1]: 69.23; IC50 ([2]; Table S2, read-out: MTT MDA-MB-231 IC50): 2.65 µM; IC50 (HCC1395 cells; read-out: HCC1395 Cytotoxicity IC50, Renilla luciferase, HCC1395): > 100 µM; MTT HCC1806 plateau (HCC1806 TNBC cell line): 100; IC50 (HCC1806 TNBC cell line): 22.7 µM; MTT HCC1395 plateau (HCC1395 TNBC cell line): 100; IC50 (HCC1395 TNBC cell line): 7.83 µM; selectivity over the control cells (difference in IC50, MCF10a vs HCC1395) ([3]; MTT IC50 ratio MCF10a / HCC1395): less than 3 fold; MTT MCF10 plateau ([3]; Table S2): 100; IC50 ([3]; Table S2): 10.5 µM; TopFlash activity in words ([4]; HCC1395, CHIR99021): no longer active; GSK HCC1395 plateau ([4]; Table S2): 100; IC50 ([4]; Table S2, TopFlash, GSK3β inhibitor stimulation, read-out: GSK HCC1395 IC50): 42.8 µM; MTT BT-20 plateau (BT-20 TNBC cell line): 100; IC50 (BT-20 TNBC cell line): 2.96 µM
2 | Clc1ccccc1CCNc1ncnc2sccc12 [Compound 5k, N-(2-chlorophenethyl)thieno[2,3-d]pyrimidin-4-amine] |  | > 50 µM | > 10 µM | > 50 µM | Non-toxic | > 50 µM | > 50 µM | 4.24 µM | 43.6 µM | 93.2 ± 10.6% | 42.9 ± 50.2 µM | > 50 µM |  | 
3 | Clc1cccc(CNc2ncnc3sccc23)c1 [Compound 4i, N-(3-chlorobenzyl)thieno[2,3-d]pyrimidin-4-amine] | 100 | 1.44 µM |  | 18.7 µM | Non-toxic | > 50 µM | 2.2 µM | 1.74 µM | > 10 µM | 56.2 ± 4% | 8.4 ± 5.01 µM | 5.24 µM | Inactive | 
4 | Clc1cccc(CCNc2ncnc3sccc23)c1 [Compound 5l, N-(3-chlorophenethyl)thieno[2,3-d]pyrimidin-4-amine] |  | 37 µM | > 10 µM | > 50 µM | Non-toxic | > 50 µM | 38.1 µM | 6.15 µM | > 50 µM | 77.5 ± 16.3% | 1.79 µM | 15 µM |  | IC50 ([4]; HCC1395, stimulation with CHIR99021 (GSK3β inhibitor), read-out: HCC1395 TopFlash IC50): 3.07 ± 2.39 µM
5 | COc1cc(CNc2ncnc3sccc23)ccc1Cl [Compound 4q, N-(4-chloro-3-methoxybenzyl)thieno[2,3-d]pyrimidin-4-amine] |  | 0.57 µM |  | > 10 µM |  | > 50 µM | > 10 µM | 0.63 µM | > 10 µM | 68.5 ± 2.9% | 1.33 ± 0.07 µM | 0.96 µM | Inactive | MTT MDA-MB-231 Comments ([2]; Table S2): Inactive; MTT HCC1806 Comments (HCC1806 TNBC cell line): Inactive

From paper PMC9649909, “Wnt-pathway inhibitors with selective activity against triple-negative breast cancer: From thienopyrimidine to quinazoline inhibitors” (Frontiers in Pharmacology, 2022)
